A short description of data set [1]: Storage Stability Test (Deliquescence). The class given is physicochemical. The conditions noted are these: stored at 40° C. and 75% relative humidity; up to 2 months. The method, then: The hemifumarate dihydrate of Example 1, the ¾ fumarate dihydrate of Comparative Example 1 and the above compound (B) were stored under a condition of 40° C. and 75% relative humidity, and existence or nonexistence of the deliquescence was examined.

Data set [2] in a line: Storage Stability Test (Purity), purity by HPLC and appearance after storage. The following applies: for Purity (%) after 2 months / Purity (%) at initial point: HPLC. Format: physicochemical. The method, then: The hemifumarate dihydrate of Example 1 and the above compound (B) each were stored under a condition of 40° C. and 75% relative humidity and 60° C. in open vessels, and the storage stability for 2 months was examined. […] Measurement conditions of HPLC are as follows.
Detector: ultraviolet-visible absorption spectrophotometer, wavelength: 225 nm
Column: LUNA C18(2) (produced by Phenomenex), 5 μm, 4.6×250 mm, particle diameter 100×10^−10 m
Column Temperature: a constant temperature of around 25° C.
Sample concentration: 1 mg/mL
Mobile phase A: 10 mM dipotassium hydrogenphosphate aqueous solution adjusted to pH 7.8 with phosphoric acid
Mobile phase B: acetonitrile
Gradient of concentration:
0 minute: Mobile phase B=22%
30 minutes: Mobile phase B=22%
50 minutes: Mobile phase B=70%
60 minutes: Mobile phase B=70%
Range of area measurement: for 50 minutes from the start of analysis, except for the areas of the peak of fumaric acid (retention time 2 minutes), the peak of diethyl fumarate which is an impurity (retention time around 44 minutes) and the peak of the blank solution.

The mark [3] stands for this setting: storage condition 40° C. and 75% relative humidity.
Where [4] appears, read: storage condition 60° C. in open vessels.

As to `Cc1cc(OCCCNCC(C)(C)C(N)=O)ccc1Cc1c(O[C@@H]2OC(CO)[C@@H](O)C(O)C2O)n[nH]c1C(C)C` (stereo partly drawn) [compound (B), 3-(3-{4-[3-(β-D-Glucopyanosyloxy)-5-isopropyl-1H-pyazol-4-ylmethyl]-3-methylphenoxy}propylamino)-2,2-dimethylpropionamide], in data set [1], the “existence or nonexistence of the deliquescence” value (from here on “existence or nonexistence”) is reported as “deliquescence was observed from the initial point of the experiment”. For the same compound, in data set [2] (setting [3]), the “Purity (%) after 2 months” value was found to be 97.0% and the “Purity (%) at initial point” value is reported as 98.7%. In data set [2] (setting [4]), the “Appearance after 2 months” value is listed as “Brown”, the “Purity (%) after 2 months” value worked out at 95.3%, the “Appearance at initial point” value is recorded as “White” and the “Purity (%) at initial point” value is 98.7%.
For the compound `Cc1cc(OCCCNCC(C)(C)C(N)=O)ccc1Cc1c(O[C@@H]2O[C@H](CO)[C@@H](O)[C@H](O)[C@H]2O)n[nH]c1C(C)C.O=C(O)/C=C/C(=O)O` [Example 1, 3-(3-{4-[3-(β-D-Glucopyranosyloxy)-5-isopropyl-1H-pyrazol-4-ylmethyl]-3-methylphenoxy}propylamino)-2,2-dimethylpropionamide hemifumarate dihydrate], the “existence or nonexistence” value in data set [1] is given as “no deliquescence during 2 months”. In addition, in data set [2] (setting [3]), the “Purity (%) after 2 months” value came out at 99.6% and the “Purity (%) at initial point” value came out at 99.5%. In data set [2] (setting [4]), the “Appearance after 2 months” value is “White”, the “Purity (%) after 2 months” value is on record as 99.0%, the “Appearance at initial point” value is reported as “White” and the “Purity (%) at initial point” value is listed as 99.5%.
On to `Cc1cc(OCCCNCC(C)(C)C(N)=O)ccc1Cc1c(O[C@@H]2O[C@H](CO)[C@@H](O)[C@H](O)[C@H]2O)n[nH]c1C(C)C.O.O.O=C(O)/C=C/C(=O)O` [Comparative Example 1, 3-(3-{4-[3-(β-D-Glucopyanosyloxy)-5-isopropyl-1H-pyazol-4-ylmethyl]-3-methyl-phenoxy}propylamino)-2,2-dimethylpropionamide ¾ fumarate dihydrate], for which the “existence or nonexistence” value in data set [1] is given as “deliquescence was observed from the initial point of the experiment”.

Values taken from US8354382B2, “Hemifumarate of a pyrazole derivative” (Kissei Pharmaceutical Co., Ltd., priority 2008, dated 2013).
